From US11246929B2, “Combination of a protein kinase inhibitor and an additional chemotherapeutic agent” (Merck Patent GmbH, priority 2016, dated 2022)
Where two headings read alike, the source gives them in different places. Values belong to the compound of their own block, whether it stands above or below them.

Columns and labels:
Format in all cases: cell-based
[1] = tested on: resting, non-proliferating PBMC; assay: Single agent activity, panel of 81 cancer cell lines plus PBMC
[2] = tested on: 81 cancer cell lines representing 17 tumor tissue types; assay: as above; conditions: for GI50: PBMC
A204 = assay: SRB growth inhibition, 93 cell lines panel; conditions: Homo sapiens; A204, muscle; read-out: GI50 of etoposide (±Compound 1)
Protocol: (§1) 90 μl of cells, after a 48-hour pre-growth period, were treated by mixing with 10 μl of the compound-containing media (resulting in a final DMSO concentration of 0.1%).
(§2) This is the drug concentration causing a 50% reduction compared to the net protein increase in control cells during the drug incubation period. In other words, G150 is IC50 corrected for time zero. […] TGI was calculated from Ti=Tz. […] It was calculated as 100×[(Ti−Tz)/Tz]=−50.

HCT116 = assay: SRB growth inhibition, 93 cell lines panel; conditions: Homo sapiens, HCT-116; HCT116, colon; read-out: GI50 of etoposide (±Compound 1)
Protocol: as §1, §2

HT1080 = assay: SRB growth inhibition, 93 cell lines panel; conditions: Homo sapiens, HT-1080; HT1080, connective tissue; read-out: GI50 of etoposide (±Compound 1)
Protocol: as §1, §2

MV4-11 = assay: SRB growth inhibition, 93 cell lines panel; conditions: Homo sapiens; MV4-11, hematological; read-out: GI50 of etoposide (±Compound 1)
Protocol: as §1, §2

HL-60 = assay: SRB growth inhibition, 93 cell lines panel; conditions: Homo sapiens; HL-60, hematological; read-out: GI50 of etoposide (±Compound 1)
Protocol: as §1, §2

5637 = assay: SRB growth inhibition, 93 cell lines panel; conditions: 5637, bladder; read-out: GI50 of etoposide (±Compound 1)
Protocol: as §1, §2

A2780 = assay: SRB growth inhibition, 93 cell lines panel; conditions: Homo sapiens; A2780, ovary; read-out: GI50 of etoposide (±Compound 1)
Protocol: as §1, §2

PC3 = assay: SRB growth inhibition, 93 cell lines panel; conditions: Homo sapiens, PC-3; PC3, prostate; read-out: GI50 of etoposide (±Compound 1)
Protocol: as §1, §2

CALU6 = assay: SRB growth inhibition, 93 cell lines panel; conditions: Homo sapiens, Calu-6; CALU6, lung; read-out: GI50 of etoposide (±Compound 1)
Protocol: as §1, §2

EJ28 = assay: SRB growth inhibition, 93 cell lines panel; conditions: Homo sapiens, EJ-28; EJ28, bladder; read-out: GI50 of etoposide (±Compound 1)
Protocol: as §1, §2

COLO678 = assay: SRB growth inhibition, 93 cell lines panel; conditions: Homo sapiens, COLO-678; COLO678, colon; read-out: GI50 of etoposide (±Compound 1)
Protocol: as §1, §2

IMR90 = assay: SRB growth inhibition, 93 cell lines panel; conditions: Homo sapiens, IMR-90; IMR90, lung; read-out: GI50 of etoposide (±Compound 1)
Protocol: as §1, §2

15O31 = assay: SRB growth inhibition, 93 cell lines panel; conditions: 15O31, kidney; read-out: GI50 of etoposide (±Compound 1)
Protocol: as §1, §2

PANC1005 = assay: SRB growth inhibition, 93 cell lines panel; conditions: Homo sapiens; PANC1005, pancreas; read-out: GI50 of etoposide (±Compound 1)
Protocol: as §1, §2

A549 = assay: SRB growth inhibition, 93 cell lines panel; conditions: Homo sapiens; A549, lung; read-out: GI50 of etoposide (±Compound 1)
Protocol: as §1, §2

786O = assay: SRB growth inhibition, 93 cell lines panel; conditions: Homo sapiens, 786-0, kidney, read-out: GI50 of etoposide (±Compound 1)
Protocol: as §1, §2

JAR = assay: SRB growth inhibition, 93 cell lines panel; conditions: placenta, read-out: GI50 of etoposide (±Compound 1)
Protocol: as §1, §2

LOVO = assay: SRB growth inhibition, 93 cell lines panel; conditions: Homo sapiens, colon, read-out: GI50 of etoposide (±Compound 1)
Protocol: as §1, §2

CLS439 = assay: SRB growth inhibition, 93 cell lines panel; conditions: CLS439, bladder; read-out: GI50 of etoposide (±Compound 1)
Protocol: as §1, §2

PBMC = assay: SRB growth inhibition, 93 cell lines panel; conditions: hematological, read-out: GI50 of etoposide (±Compound 1)
Protocol: as §1, §2

EFO21 = assay: SRB growth inhibition, 93 cell lines panel; conditions: Homo sapiens, EFO-21; EFO21, ovary; read-out: GI50 of etoposide (±Compound 1)
Protocol: as §1, §2

ACHN = assay: SRB growth inhibition, 93 cell lines panel; conditions: Homo sapiens, kidney, read-out: GI50 of etoposide (±Compound 1)
Protocol: as §1, §2

152OS = assay: SRB growth inhibition, 93 cell lines panel; conditions: bone, read-out: GI50 of etoposide (±Compound 1)
Protocol: as §1, §2

SKOV3 = assay: SRB growth inhibition, 93 cell lines panel; conditions: Homo sapiens, SK-OV-3; SKOV3, ovary; read-out: GI50 of etoposide (±Compound 1)
Protocol: as §1, §2

NCIH358M = assay: SRB growth inhibition, 93 cell lines panel; conditions: NCI-H358M, lung, read-out: GI50 of etoposide (±Compound 1)
Protocol: as §1, §2

BT20 = assay: SRB growth inhibition, 93 cell lines panel; conditions: Homo sapiens, BT-20; BT20, breast; read-out: GI50 of etoposide (±Compound 1)
Protocol: as §1, §2

TE671 = assay: SRB growth inhibition, 93 cell lines panel; conditions: Homo sapiens, TE-671; TE671, muscle; read-out: GI50 of etoposide (±Compound 1)
Protocol: as §1, §2

J82 = assay: SRB growth inhibition, 93 cell lines panel; conditions: Homo sapiens; J82, bladder; read-out: GI50 of etoposide (±Compound 1)
Protocol: as §1, §2

MHHES1 = assay: SRB growth inhibition, 93 cell lines panel; conditions: Homo sapiens, MHH-ES-1; MHHES1, bone; read-out: GI50 of etoposide (±Compound 1)
Protocol: as §1, §2

RD = assay: SRB growth inhibition, 93 cell lines panel; conditions: Homo sapiens, muscle, read-out: GI50 of etoposide (±Compound 1)
Protocol: as §1, §2

SMILES: COc1ccc([C@@H](O)c2cc(-c3ncnc4cc(N5CCOCC5)ccc34)c(F)cc2Cl)nn1 [Compound 1, (S)-[2-chloro-4-fluoro-5-(7-morpholin-4-yl-quinazolin-4-yl)-phenyl]-(6-methoxy-pyridazin-3-yl)-methanol]
activity in resting PBMC [1]: No activity
activity range [2]: more than 20 fold
GI50 ([2]; in a set of cell lines, read-out: activity (GI50), lower end of range): 500 nM
GI50 ([2]; read-out: activity (GI50), upper end of range): > 10000 nM

GI50 (HCT116): 770 nM
GI50 (HT1080): 96 nM
GI50 (MV4-11): 38 nM
GI50 (HL-60): 120 nM
GI50 (A2780): 62 nM
GI50 (PC3): 5240 nM
GI50 (CALU6): 3650 nM
GI50 (COLO678): 10800 nM
GI50 (PANC1005): 2730 nM
GI50 (A549): 390 nM
GI50 (LOVO): 606 nM
GI50 (ACHN): 714 nM
GI50 (SKOV3): 2990 nM
GI50 (BT20): 73 nM
SMILES: COc1cc([C@@H]2c3cc4c(cc3[C@@H](O[C@@H]3O[C@@H]5CO[C@@H](C)O[C@H]5[C@H](O)[C@H]3O)[C@H]3COC(=O)[C@H]23)OCO4)cc(OC)c1O [Etoposide]
activity in resting PBMC [1]: no activity
GI50 (A204): 286 nM
GI50 5637: 685 nM
GI50 (EJ28): 440 nM
GI50 (IMR90): 704 nM
GI50 (15O31): 7910 nM
GI50 (786O): 928 nM
GI50 (JAR): 116 nM
GI50 (CLS439): 965 nM
GI50 (PBMC): > 10000 nM
GI50 (EFO21): 8220 nM
GI50 (152OS): 1080 nM
GI50 (NCIH358M): 3330 nM
GI50 (TE671): 1150 nM
GI50 (J82): 7930 nM
GI50 (MHHES1): 227 nM
GI50 (RD): > 10000 nM
activity range [2]: more than 1000 fold
